Tests used:
[1] = test system: LL/2 lung cancer tumor endothelial cells; test: Lung LL2 ex vivo model of tumor angiogenesis; assay type: cell-based, mouse; conditions: for 48 hrs (morphology observations): LL/2 tumor endothelial cells; for Cell death: drug treatment for two days, ratio of red area to total endothelial cell area; for cytotoxicity at 40 µM / cytotoxicity at 20 µM: Mus musculus, Endothelial cell, 48 h, read-out: Cell death
Summary of the method: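 LL2 mouse tumor fragments (~0.075 mm³) embedded in Matrigel and cultured in endothelial growth medium at 37 °C until endothelial outgrowth (~4 days) before treatment. Cell death assessed e.g. 48 h after drug by fluorescein diacetate (live)/propidium iodide (dead) staining and red/green fluorescence imaging.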

[2] = test system: CT26.CL25 colon cancer tumor endothelial cells; test: Colon CT26 ex vivo model of tumor angiogenesis; assay type: cell-based, mouse; conditions: for cytotoxicity at 40 µM / cytotoxicity at 10 µM / cytotoxicity at 20 µM: Mus musculus, Endothelial cell, 48 h, read-out: Cell death
Summary of the method: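 Pieces of CT26 mouse tumor (~0.075 mm³) embedded in Matrigel and cultured in endothelial growth medium at 37 °C, 5% CO2 until endothelial outgrowth appeared (about 7 days), then treated. About 48 h after drug addition, live/dead staining with fluorescein diacetate and propidium iodide was imaged in green and red channels.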

| Structure (SMILES) | 48 hrs (morphology observations) ([1]; 40 μm) | Cell death ([1]; 40 μm) | 48 hrs (morphology observations after 48 hours) ([2]; Conc. 40 μm) | cytotoxicity at 40 µM [2] | also measured |
| --- | --- | --- | --- | --- | --- |
| CCc1ccc(S(=O)(=O)c2cnc3ccc(OC(F)(F)F)cc3c2-n2cncn2)cc1 [Compound 51] | **** (100% of endothelial cells vesicularize in cell shape and look flattened in morphology (indicating disintegration of the cell body)) | 100% | *** (100% of endothelial cells vesicularize in cell shape) | 20% |  |
| CCOC(=O)c1ccc2ncc(S(=O)(=O)c3ccc(CC)cc3)c(NN3CCN(C)CC3)c2c1 [Compound 84] |  |  | * (50% or less of cells vesicularize in cell shape) | 100% | cytotoxicity at 40 µM [1]: 100% |
| CCCCOc1ccc(S(=O)(=O)c2cnc3ccc(C(=O)OCC)cc3c2N2CCC(N3CCN(CCO)CC3)CC2)cc1 [Compound 214] | **** (100% of endothelial cells vesicularize in cell shape and look flattened in morphology (indicating disintegration of the cell body)) |  | **** (100% of endothelial cells vesicularize in cell shape and look flattened in morphology (indicating disintegration of the cell body)) | 100% | cytotoxicity at 40 µM [1]: 100% |
| CCc1ccc(S(=O)(=O)c2cnc3ccc(C(=O)O)cc3c2N2CCCN(C)CC2)cc1 [Compound 66] |  | 10% | 0 | 0% |  |
| CCc1ccc(S(=O)(=O)c2cnc3ccc([N+](=O)[O-])cc3c2N2CCC(N3CCCCC3)CC2)cc1 [Compound 77] |  | 80% | 0 | 40% |  |
| CCCCCCCOc1ccc(S(=O)(=O)c2cnc3ccc([S+](C)[O-])cc3c2N2CCC(N3CCN(CCO)CC3)CC2)cc1 (stereo not drawn) [Compound 257] |  |  |  |  | 48 hrs (morphology observations) ([1]; 20 μm): **** (100% of endothelial cells vesicularize in cell shape and look flattened in morphology (indicating disintegration of the cell body)); cytotoxicity at 20 µM [1]: 100%; 48 hrs (morphology observations after 48 hours) ([2]; Conc. 10 μm): **** (100% of endothelial cells vesicularize in cell shape and look flattened in morphology (indicating disintegration of the cell body)); cytotoxicity at 10 µM [2]: 100% |
| CCc1ccc(S(=O)(=O)c2cnc3ccc(OC(F)(F)F)cc3c2N2CCC(N3CCCC3)CC2)cc1 [Compound 46] | **** (100% of endothelial cells vesicularize in cell shape and look flattened in morphology (indicating disintegration of the cell body)) |  | **** (100% of endothelial cells vesicularize in cell shape and look flattened in morphology (indicating disintegration of the cell body)) | 100% | cytotoxicity at 40 µM [1]: 100% |
| COc1ccc(S(=O)(=O)c2cnc3ccc(OC(F)(F)F)cc3c2-n2cncn2)cc1OC [Compound 89] |  |  |  |  | 48 hrs (morphology observations) ([1]; 20 μm): *** (more than 50% but less than 100% of endothelial cells vesicularize in cell shape); cytotoxicity at 20 µM [1]: 100%; 48 hrs (morphology observations after 48 hours) ([2]; Conc. 10 μm): *** (100% of endothelial cells vesicularize in cell shape); cytotoxicity at 10 µM [2]: 100% |
| CCCCOc1ccc2ncc(S(=O)(=O)c3ccc(OC)c(OC)c3)c(N3CCC(N4CCCCC4)CC3)c2c1 [Compound 116] |  |  |  |  | 48 hrs (morphology observations) ([1]; 20 μm): *** (more than 50% but less than 100% of endothelial cells vesicularize in cell shape); Cell death ([1]; 20 μm): 100%; 48 hrs (morphology observations after 48 hours) ([2]; Conc. 20 μm): * (50% or less of cells vesicularize in cell shape); cytotoxicity at 20 µM [2]: 50% |
| COc1ccc(S(=O)(=O)c2cnc3ccc(SC)cc3c2N2CCC(N3CCCCC3)CC2)cc1OC [Compound 121] |  | 50% | *** (100% of endothelial cells vesicularize in cell shape) | 40% |  |
| CCOC(=O)C1CCN(c2c(S(=O)(=O)c3ccc(CC)cc3)cnc3ccc(OC(F)(F)F)cc23)CC1 [Compound 47] |  | 50% | 0 | 10% |  |
| CCCCCCCOc1ccc(S(=O)(=O)c2cnc3ccc([S+](C)[O-])cc3c2N2CCC(N3CCC(N4CCCCC4)CC3)CC2)cc1 (stereo not drawn) [Compound 258] |  |  |  |  | 48 hrs (morphology observations) ([1]; 20 μm): **** (100% of endothelial cells vesicularize in cell shape and look flattened in morphology (indicating disintegration of the cell body)); cytotoxicity at 20 µM [1]: 100%; 48 hrs (morphology observations after 48 hours) ([2]; Conc. 10 μm): *** (100% of endothelial cells vesicularize in cell shape); cytotoxicity at 10 µM [2]: 100% |
| COc1ccc(S(=O)(=O)c2cnc3ccc(OC(F)(F)F)cc3c2NCCO)cc1OC [Compound 69] | 0 |  | 0 | 0% | cytotoxicity at 40 µM [1]: 20% |
| CCCCOc1ccc(S(=O)(=O)c2cnc3ccc(C(=O)OCC)cc3c2N2CCC(N3CCCCC3)CC2)cc1 [Compound 157] | *** (more than 50% but less than 100% of endothelial cells vesicularize in cell shape) | 100% | **** (100% of endothelial cells vesicularize in cell shape and look flattened in morphology (indicating disintegration of the cell body)) | 60% |  |
| CCCCOc1ccc(S(=O)(=O)c2cnc3ccc(OC(F)(F)F)cc3c2-n2cncn2)cc1 [Compound 93] |  |  |  |  | 48 hrs (morphology observations) ([1]; 20 μm): *** (more than 50% but less than 100% of endothelial cells vesicularize in cell shape); cytotoxicity at 20 µM [1]: 100%; 48 hrs (morphology observations after 48 hours) ([2]; Conc. 10 μm): *** (100% of endothelial cells vesicularize in cell shape); cytotoxicity at 10 µM [2]: 100% |
| COc1ccc(S(=O)(=O)c2cnc3ccc(OC(F)(F)F)cc3c2N(CCO)CCO)cc1OC [Compound 72] |  | 20% | 0 | 0% |  |
| O=[N+]([O-])c1ccc(S(=O)(=O)c2cnc3ccc(OC(F)(F)F)cc3c2N2CCC(O)CC2)cc1 [Compound 61] |  | 50% | 0 | 20% |  |
| CCCCOc1ccc(S(=O)(=O)c2cnc3ccc(OC(F)(F)F)cc3c2N2CCC(N3CCC(O)CC3)CC2)cc1 [Compound 152] |  |  | ** (more than 50% but less than 100% of endothelial cells vesicularize in cell shape) | 30% | 48 hrs (morphology observations) ([1]; 20 μm): * (50% or less of cells vesicularize in cell shape); Cell death ([1]; 20 μm): 20% |
| CCCCOc1ccc(S(=O)(=O)c2cnc3ccc([S+](C)[O-])cc3c2N2CCC(N3CCCC(O)C3)CC2)cc1 (stereo not drawn) [Compound 208] |  | 50% | 0 | 20% |  |
| CCCCOc1ccc(S(=O)(=O)c2cnc3ccc(OC(F)(F)F)cc3c2N2CCCN(C)CC2)cc1 [Compound 151] | **** (100% of endothelial cells vesicularize in cell shape and look flattened in morphology (indicating disintegration of the cell body)) |  | **** (100% of endothelial cells vesicularize in cell shape and look flattened in morphology (indicating disintegration of the cell body)) | 100% | cytotoxicity at 40 µM [1]: 100% |
| COc1ccc(S(=O)(=O)c2cnc3ccc(OC(F)(F)F)cc3c2N2CCC(N3CCCCC3)CC2)cc1 [Compound 43] | *** (more than 50% but less than 100% of endothelial cells vesicularize in cell shape) | 100% | *** (100% of endothelial cells vesicularize in cell shape) | 90% |  |
| CCCCCCCOc1ccc(S(=O)(=O)c2cnc3ccc(SC)cc3c2N2CCCN(C)CC2)cc1 [Compound 218] | **** (100% of endothelial cells vesicularize in cell shape and look flattened in morphology (indicating disintegration of the cell body)) | 100% | *** (100% of endothelial cells vesicularize in cell shape) | 90% |  |
| CCCCOc1ccc(S(=O)(=O)c2cnc3ccc(C(=O)OCC)cc3c2N2CCC(N3CCOCC3)CC2)cc1 [Compound 212] |  | 50% | 0 | 10% |  |
| CCc1ccc(S(=O)(=O)c2cnc3ccc(OC(F)(F)F)cc3c2N2CCN(c3ccc(C#N)cc3)CC2)cc1 [Compound 45] |  |  | 0 | 0% | cytotoxicity at 40 µM [1]: 10% |
| CCc1ccc(S(=O)(=O)c2cnc3ccc(OC(F)(F)F)cc3c2N2CCCN(CCN(CC)CC)CC2)cc1 [Compound 100] | **** (100% of endothelial cells vesicularize in cell shape and look flattened in morphology (indicating disintegration of the cell body)) |  | **** (100% of endothelial cells vesicularize in cell shape and look flattened in morphology (indicating disintegration of the cell body)) | 100% | cytotoxicity at 40 µM [1]: 100% |
| COc1ccc(S(=O)(=O)c2cnc3ccc(OC(F)(F)F)cc3c2NN2CCN(C)CC2)cc1OC [Compound 88] | 0 | 70% | *** (100% of endothelial cells vesicularize in cell shape) | 60% |  |
| COc1ccc(S(=O)(=O)c2cnc3ccc(OC(F)(F)F)cc3c2N2CCC(O)CC2)cc1OC [Compound 58] | 0 |  | * (50% or less of cells vesicularize in cell shape) | 50% | cytotoxicity at 40 µM [1]: 50% |
| CCCCCCCOc1ccc(S(=O)(=O)c2cnc3ccc([S+](C)[O-])cc3c2N2CCN(C)CC2)cc1 (stereo not drawn) [Compound 259] |  |  |  |  | 48 hrs (morphology observations) ([1]; 20 μm): *** (more than 50% but less than 100% of endothelial cells vesicularize in cell shape); Cell death ([1]; 20 μm): 95%; 48 hrs (morphology observations after 48 hours) ([2]; Conc. 20 μm): *** (100% of endothelial cells vesicularize in cell shape); cytotoxicity at 20 µM [2]: 100% |
